Source: US20240246964A1 (Arbutus Biopharma Corporation, priority 2021, published 2024)

Key:
[1] = molecular target: PD-L1 His protein / PD-1 Fc protein (Homo sapiens (Human), UniProt Q9NZQ7); assay: HTRF Assay (PD-1/PD-L1 interaction); format: binding; settings: PD-L1 His 6 nM, PD-1 Fc 6 nM
[2] = molecular target: human PD-L1 (Homo sapiens (Human), UniProt Q9NZQ7); assay: T cell activation luciferase reporter cell culture system (T Cell Activation Assay); format: cell-based; settings: luciferase reporter assay; PD-L1 aAPC/CHO-K1 cells with PD-1 effector Jurkat T cells
Chain of human PD-L1 (Q9NZQ7 19-290): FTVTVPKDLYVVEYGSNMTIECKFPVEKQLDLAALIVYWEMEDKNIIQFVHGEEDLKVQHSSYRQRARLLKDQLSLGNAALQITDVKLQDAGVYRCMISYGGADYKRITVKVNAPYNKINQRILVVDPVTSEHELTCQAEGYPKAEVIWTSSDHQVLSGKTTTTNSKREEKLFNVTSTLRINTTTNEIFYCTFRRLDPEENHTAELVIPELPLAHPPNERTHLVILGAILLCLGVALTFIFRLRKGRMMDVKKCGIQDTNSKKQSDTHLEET

Chain of PD-L1 His protein / PD-1 Fc protein (Q9NZQ7 19-238): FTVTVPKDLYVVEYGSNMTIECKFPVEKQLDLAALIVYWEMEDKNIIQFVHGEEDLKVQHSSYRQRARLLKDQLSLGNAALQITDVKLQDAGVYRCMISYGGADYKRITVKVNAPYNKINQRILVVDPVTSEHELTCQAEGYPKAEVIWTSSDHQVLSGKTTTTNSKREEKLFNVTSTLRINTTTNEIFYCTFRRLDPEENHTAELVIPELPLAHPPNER

COc1cc(-c2nccc(-c3cccc(-c4ccc(CNCCN5CCCC5=O)c(OC)n4)c3Cl)c2Cl)ccc1CNCCN1CCCC1=O [Example 303, 1-(2-(((6-(2-Chloro-3-(3-chloro-2-(3-methoxy-4-(((2-(2-oxopyrrolidin-1-yl)ethyl)amino)methyl)phenyl)pyridin-4-yl)phenyl)-2-methoxypyridin-3-yl)methyl)amino)ethyl)pyrrolidin-2-one]
IC50 [1]: 2.83 nM
EC50 [2]: 30.8 nM

COc1nc(-c2ccnc(-c3cccc4c3CC[C@@H]4Nc3nc(OC)c(CN4CC5(CNC(=O)C5)C4)nc3C(F)(F)F)c2Cl)ccc1CN1CC2(CNC(=O)C2)C1 [Example 304, (S)-2-((3′-chloro-6-methoxy-2′-(1-((6-methoxy-5-((7-oxo-2,6-diazaspiro[3.4]octan-2-yl)methyl)-3-(trifluoromethyl)pyrazin-2-yl)amino)-2,3-dihydro-1H-inden-4-yl)-[2,4′-bipyridin]-5-yl)methyl)-2,6-diazaspiro[3.4]octan-7-one]
IC50 [1]: 6.51 nM
EC50 [2]: 197 nM

COc1nc(-c2ccnc(-c3cccc4c3CC[C@@H]4Nc3nc(OC)c(CN4CC5(C4)CN(C(C)=O)C5)nc3C(F)(F)F)c2Cl)ccc1CN1CC2(C1)CN(C(C)=O)C2 [Example 305, (S)-1-(6-((5-((4-(5-((6-Acetyl-2,6-diazaspiro[3.3]heptan-2-yl)methyl)-3′-chloro-6-methoxy-[2,4′-bipyridin]-2′-yl)-2,3-dihydro-1H-inden-1-yl)amino)-3-methoxy-6-(trifluoromethyl)pyrazin-2-yl)methyl)-2,6-diazaspiro[3.3]heptan-2-yl)ethan-1-one]
IC50 [1]: 4.96 nM
EC50 [2]: ≥ 10000 nM

COc1cc(-c2nccc(-c3cccc4c3CC[C@@H]4Oc3nc(OC)c(CN4CC5(CNC(=O)C5)C4)cc3C(F)(F)F)c2Cl)cc(F)c1CN1CC2(CNC(=O)C2)C1 [Example 306, (S)-2-(4-(3-chloro-4-(1-((6-methoxy-5-((7-oxo-2,6-diazaspiro[3.4]octan-2-yl)methyl)-3-(trifluoromethyl)pyridin-2-yl)oxy)-2,3-dihydro-1H-inden-4-yl)pyridin-2-yl)-2-fluoro-6-methoxybenzyl)-2,6-diazaspiro[3.4]octan-7-one]
IC50 [1]: 0.76 nM
EC50 [2]: 361 nM

COc1nc(-c2cccc(-c3ccnc(-c4cc(Cl)c5c(c4)CCN(CC4COC4)C5)c3Cl)c2Cl)ccc1CNC[C@@H]1CCC(=O)N1 [Example 307, (S)-5-((((6-(2-Chloro-3-(3-chloro-2-(8-chloro-2-(oxetan-3-ylmethyl)-1,2,3,4-tetrahydroisoquinolin-6-yl)pyridin-4-yl)phenyl)-2-methoxypyridin-3-yl)methyl)amino)methyl)pyrrolidin-2-one]
IC50 [1]: 1.41 nM
EC50 [2]: 186 nM

COc1nc(-c2cccc(-c3ccnc(-c4ccc5c(CN6CC7(C6)CN(C(C)=O)C7)nn(C)c5c4)c3Cl)c2Cl)ccc1CNC[C@@H]1CCC(=O)N1 [Example 308, (S)-5-((((6-(3-(2-(3-((6-Acetyl-2,6-diazaspiro[3.3]heptan-2-yl)methyl)-1-methyl-1H-indazol-6-yl)-3-chloropyridin-4-yl)-2-chlorophenyl)-2-methoxypyridin-3-yl)methyl)amino)methyl)pyrrolidin-2-one]
IC50 [1]: 0.95 nM
EC50 [2]: 24.1 nM

COc1nc(-c2cccc(-c3ccnc(-c4ccc5c(CN6CC[C@H](C(=O)O)C6)nn(C)c5c4)c3Cl)c2Cl)ccc1CNC[C@@H]1CCC(=O)N1 [Example 309, (S)-1-((6-(3-Chloro-4-(2-chloro-3-(6-methoxy-5-(((((S)-5-oxopyrrolidin-2-yl)methyl)amino)methyl)pyridin-2-yl)phenyl)pyridin-2-yl)-1-methyl-1H-indazol-3-yl)methyl)pyrrolidine-3-carboxylic acid]
IC50 [1]: 0.3 nM
EC50 [2]: 75 nM

COc1nc(-c2cccc(-c3ccnc(-c4cc(OC)c5nc(CNC[C@@H]6CCC(=O)N6)cn5c4)c3Cl)c2Cl)ccc1CNC[C@@H]1CCC(=O)N1 [Example 310, (S)-5-((((6-(2-Chloro-3-(3-chloro-2-(8-methoxy-2-(((((S)-5-oxopyrrolidin-2-yl)methyl)amino)methyl)imidazo[1,2-a]pyridin-6-yl)pyridin-4-yl)phenyl)-2-methoxypyridin-3-yl)methyl)amino)methyl)pyrrolidin-2-one]
IC50 [1]: 1.8 nM
EC50 [2]: 90.5 nM

COc1cc(-c2nccc(-c3cccc(-c4cnc(CNC5CCN(C(C)=O)CC5)c(OC)n4)c3Cl)c2Cl)ccc1CNC1CCN(C(C)=O)CC1 [Example 311, 1-(4-(((5-(3-(2-(4-(((1-Acetylpiperidin-4-yl)amino)methyl)-3-methoxyphenyl)-3-chloropyridin-4-yl)-2-chlorophenyl)-3-methoxypyrazin-2-yl)methyl)amino)piperidin-1-yl)ethan-1-one]
IC50 [1]: 0.907 nM
EC50 [2]: 152 nM

COc1nc(-c2cccc(-c3ccnc(-c4cc(OC)c5nc(CN[C@H]6C[C@](C)(O)C6)cn5c4)c3Cl)c2Cl)ccc1CNC[C@@H]1CCC(=O)N1 [Example 312, (S)-5-((((6-(2-chloro-3-(3-chloro-2-(2-((((1r,3r)-3-hydroxy-3-methylcyclobutyl)amino)methyl)-8-methoxyimidazo[1,2-a]pyridin-6-yl)pyridin-4-yl)phenyl)-2-methoxypyridin-3-yl)methyl)amino)methyl)pyrrolidin-2-one]
IC50 [1]: 0.813 nM
EC50 [2]: 178 nM

COc1nc(-c2cccc(-c3ccnc(-c4cc(OC)c5nc(CN6CC7(CNC(=O)C7)C6)cn5c4)c3Cl)c2Cl)ccc1CNC[C@@H]1CCC(=O)N1 [Example 314, (S)-2-((6-(3-Chloro-4-(2-chloro-3-(6-methoxy-5-((((5-oxopyrrolidin-2-yl)methyl)amino)methyl)pyridin-2-yl)phenyl)pyridin-2-yl)-8-methoxyimidazo[1,2-a]pyridin-2-yl)methyl)-2,6-diazaspiro[3.4]octan-7-one]
IC50 [1]: 1.63 nM
EC50 [2]: 69.2 nM

COc1cc(-c2nccc(-c3cccc(-c4ccc(CNC5CCN(C(C)=O)CC5)c(OC)n4)c3Cl)c2Cl)ccc1CN(C)C1CCN(C(C)=O)CC1 [Example 315, 1-(4-(((6-(3-(2-(4-(((1-acetylpiperidin-4-yl)(methyl)amino)methyl)-3-methoxyphenyl)-3-chloropyridin-4-yl)-2-chlorophenyl)-2-methoxypyridin-3-yl)methyl)amino)piperidin-1-yl)ethan-1-one]
IC50 [1]: 1.54 nM
EC50 [2]: 28.9 nM

COc1cc(-c2nccc(-c3cccc(-c4ccc(CNC5CCN(C(=O)C6CC6)CC5)c(OC)n4)c3Cl)c2Cl)cc(F)c1CNC1CCN(C(=O)C2CC2)CC1 [Example 316, (4-(((6-(2-Chloro-3-(3-chloro-2-(4-(((1-(cyclopropanecarbonyl)piperidin-4-yl)amino)methyl)-3-fluoro-5-methoxyphenyl)pyridin-4-yl)phenyl)-2-methoxypyridin-3-yl)methyl)amino)piperidin-1-yl)(cyclopropyl)methanone]
IC50 [1]: 3.45 nM
EC50 [2]: 45.7 nM

COc1nc(-c2cccc(-c3ccnc(-c4cc(OC)c5nc(CN6CC(C)(O)C6)cn5c4)c3Cl)c2Cl)ccc1CNC[C@@H]1CCC(=O)N1 [Example 317, (S)-5-((((6-(2-Chloro-3-(3-chloro-2-(2-((3-hydroxy-3-methylazetidin-1-yl)methyl)-8-methoxyimidazo[1,2-a]pyridin-6-yl)pyridin-4-yl)phenyl)-2-methoxypyridin-3-yl)methyl)amino)methyl)pyrrolidin-2-one]
IC50 [1]: 1.94 nM
EC50 [2]: 62.6 nM

COc1nc(-c2cccc(-c3ccnc(-c4cc(OC)c5nc(CNC6CCN(C(C)=O)CC6)cn5c4)c3Cl)c2Cl)ccc1CNC[C@@H]1CCC(=O)N1 [Example 318, (S)-5-((((6-(3-(2-(2-(((1-Acetylpiperidin-4-yl)amino)methyl)-8-methoxyimidazo[1,2-a]pyridin-6-yl)-3-chloropyridin-4-yl)-2-chlorophenyl)-2-methoxypyridin-3-yl)methyl)amino)methyl)pyrrolidin-2-one]
IC50 [1]: 1.8 nM
EC50 [2]: 31.5 nM

COc1nc(-c2cccc(-c3ccnc(-c4cc(OC)c5nc(CN6CC7(C6)CN(C(C)=O)C7)cn5c4)c3Cl)c2Cl)ccc1CNC[C@@H]1CCC(=O)N1 [Example 319, (S)-5-((((6-(3-(2-(2-((6-Acetyl-2,6-diazaspiro[3.3]heptan-2-yl)methyl)-8-methoxyimidazo[1,2-a]pyridin-6-yl)-3-chloropyridin-4-yl)-2-chlorophenyl)-2-methoxypyridin-3-yl)methyl)amino)methyl)pyrrolidin-2-one]
IC50 [1]: 0.767 nM
EC50 [2]: 38.3 nM

COc1nc(-c2cccc(-c3ccnc(-c4cc(OC)c5nc(CN6CC7(CCC(=O)N7)C6)cn5c4)c3Cl)c2Cl)ccc1CNC[C@@H]1CCC(=O)N1 [Example 320, (S)-2-((6-(3-Chloro-4-(2-chloro-3-(6-methoxy-5-((((5-oxopyrrolidin-2-yl)methyl)amino)methyl)pyridin-2-yl)phenyl)pyridin-2-yl)-8-methoxyimidazo[1,2-a]pyridin-2-yl)methyl)-2,5-diazaspiro[3.4]octan-6-one]
IC50 [1]: 0.231 nM
EC50 [2]: 51.2 nM

COc1nc(-c2cccc(-c3ccnc(-c4cc(OC)c5nc(CNC6CC7(COC7)C6)cn5c4)c3Cl)c2Cl)ccc1CNC[C@@H]1CCC(=O)N1 [Example 321, (S)-5-((((6-(3-(2-(2-(((2-Oxaspiro[3.3]heptan-6-yl)amino)methyl)-8-methoxyimidazo[1,2-a]pyridin-6-yl)-3-chloropyridin-4-yl)-2-chlorophenyl)-2-methoxypyridin-3-yl)methyl)amino)methyl)pyrrolidin-2-one]
IC50 [1]: 0.847 nM
EC50 [2]: 64.7 nM

COc1cc(-c2nccc(-c3cccc(-c4ccc(CN5CCC(NC(C)=O)CC5)c(OC)n4)c3Cl)c2Cl)ccc1CN1CCC(NC(C)=O)CC1 [Example 322, N-(1-((6-(3-(2-(4-((4-Acetamidopiperidin-1-yl)methyl)-3-methoxyphenyl)-3-chloropyridin-4-yl)-2-chlorophenyl)-2-methoxypyridin-3-yl)methyl)piperidin-4-yl)acetamide]
IC50 [1]: 23.1 nM
EC50 [2]: 72.9 nM
